The values that follow come from PubChem BioAssay AID651581 (Sanford-Burnham Center for Chemical Genomics, 2012).

Active and inactive are the calls of the source. How the calls were made is not given here. Bounds are passed on as bounds.

Assay [1] addresses Endothelial PAS domain-containing protein 1 (Homo sapiens) (UniProt Q99814). The assay can be described thus: HIF-2a and HIF-1a reporter inhibition panel, dose response, selectivity assay for HIF-2a inhibitor project, cell-based, luminescence (AID 651581).
The target in assay [2] is Hypoxia-inducible factor 1-alpha (Homo sapiens) (UniProt Q16665). The description is as above. To be noted: HIF-1a.
Sequence of Hypoxia-inducible factor 1-alpha (Homo sapiens) (Q16665 whole entry, looked up): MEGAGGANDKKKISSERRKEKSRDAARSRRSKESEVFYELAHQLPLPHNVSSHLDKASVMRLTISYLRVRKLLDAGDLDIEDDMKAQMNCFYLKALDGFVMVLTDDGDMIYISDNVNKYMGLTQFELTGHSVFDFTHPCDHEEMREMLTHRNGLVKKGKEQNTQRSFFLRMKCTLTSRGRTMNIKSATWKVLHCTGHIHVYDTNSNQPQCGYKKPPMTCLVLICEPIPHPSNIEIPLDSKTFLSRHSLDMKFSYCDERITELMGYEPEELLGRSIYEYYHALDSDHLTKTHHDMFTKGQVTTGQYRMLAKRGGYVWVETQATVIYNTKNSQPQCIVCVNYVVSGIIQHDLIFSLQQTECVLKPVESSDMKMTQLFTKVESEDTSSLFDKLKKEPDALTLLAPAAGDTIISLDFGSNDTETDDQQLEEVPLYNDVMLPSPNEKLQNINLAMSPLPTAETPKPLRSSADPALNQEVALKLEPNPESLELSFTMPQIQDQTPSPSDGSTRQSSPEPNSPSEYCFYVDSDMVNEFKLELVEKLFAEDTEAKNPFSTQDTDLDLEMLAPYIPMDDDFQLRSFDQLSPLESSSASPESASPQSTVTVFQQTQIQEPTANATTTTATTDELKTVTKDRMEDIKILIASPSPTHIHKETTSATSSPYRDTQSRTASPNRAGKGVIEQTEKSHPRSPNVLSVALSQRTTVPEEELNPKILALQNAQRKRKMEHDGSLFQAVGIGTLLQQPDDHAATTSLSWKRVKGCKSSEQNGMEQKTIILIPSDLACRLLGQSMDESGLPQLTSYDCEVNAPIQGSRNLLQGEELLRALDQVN

For the molecule `S=C(c1ccc(-c2ccccc2)cc1)N1CCOCC1`, the IC50 – broadly, the point on the concentration scale where inhibition reaches its midpoint – in assay [1] (HIF-2a PANC, mean of runs) is 2.79 µM; in assay [1] (HIF-2a PANC, run 1) it was 2.51 µM; in assay [1] (HIF-2a PANC, run 2) it was 3.07 µM; in assay [1] (HIF-2a, mean of runs), 1.06 µM; in assay [1] (HIF-2a, run 1), 0.98 µM; in assay [1] (HIF-2a, run 2) it was 1.15 µM. The half-maximal inhibitory concentration (IC50) turned out to be 1.48 µM in assay [2] (run 1) and 2.53 µM in assay [2] (run 2). The IC50 entry in assay [2] (mean of runs) was “inactive”.

As for `COc1cc(/C=N/O)ccc1OCc1ccc(C(=O)O)cc1`, the IC50 in assay [1] (HIF-2a PANC, mean of runs) was > 99 µM (inactive); in assay [1] (HIF-2a PANC, run 1), over 99 µM; in assay [1] (HIF-2a PANC, run 2), over 99 µM; in assay [1] (HIF-2a, mean of runs), 4.29 µM; in assay [1] (HIF-2a, run 1), 5.58 µM; in assay [1] (HIF-2a, run 2) it was 3 µM. Also, the IC50 in assay [2] (run 1) and in assay [2] (run 2) was over 99 µM throughout.

For `N=c1nc(SCCC(=O)O)ss1`, the IC50 result is “inactive” in assay [1] (HIF-2a PANC, mean of runs) and “inactive” in assay [2] (mean of runs). Further, the concentration for half-maximal inhibition (IC50) is 30.8 µM in assay [1] (HIF-2a PANC, run 1); 39.5 µM in assay [1] (HIF-2a PANC, run 2); 6.38 µM in assay [1] (HIF-2a, mean of runs); 6.36 µM in assay [1] (HIF-2a, run 1); 6.39 µM in assay [1] (HIF-2a, run 2); 7.84 µM in assay [2] (run 1). The IC50 in assay [2] (run 2) turned out to be 14.4 µM.

Regarding `NC(=O)COC(=O)CCCSc1nc2ccccc2s1`, the half-inhibitory concentration (IC50) in assay [1] (HIF-2a PANC, run 1) is over 99 µM; in assay [1] (HIF-2a PANC, run 2) it was 81.1 µM; in assay [1] (HIF-2a, mean of runs), 8.53 µM; in assay [1] (HIF-2a, run 1), 8.5 µM; in assay [1] (HIF-2a, run 2), 8.56 µM; in assay [2] (run 1), 5.5 µM. In addition, the IC50 in assay [2] (run 2) came out at 12.1 µM. Besides, the IC50 result in assay [2] (mean of runs) was “inactive”.

On to `Nc1ccc2oc(-c3cc(Br)ccc3Cl)nc2c1`, for which the concentration for half-maximal inhibition (IC50) in assay [1] (HIF-2a PANC, mean of runs) is 0.506 µM; in assay [1] (HIF-2a PANC, run 1) it was 0.52 µM; in assay [1] (HIF-2a PANC, run 2) it was 0.492 µM; in assay [1] (HIF-2a, mean of runs), 1.1 µM; in assay [1] (HIF-2a, run 1), 1.08 µM; in assay [1] (HIF-2a, run 2), 1.13 µM. Moreover, the concentration for half-maximal inhibition (IC50) in assay [2] (run 1) was 69.1 µM; in assay [2] (run 2) it was over 99 µM.

Regarding `CC(C)(C)c1ccc(-c2noc(CCC(=O)NCC3CCCO3)n2)cc1` (configuration not stated), the IC50 in assay [1] (HIF-2a PANC, mean of runs) is under 3 µM; in assay [1] (HIF-2a PANC, run 1), under 3 µM; in assay [1] (HIF-2a PANC, run 2), under 10 µM; in assay [1] (HIF-2a, mean of runs), under 10 µM; in assay [1] (HIF-2a, run 1), under 10 µM; in assay [1] (HIF-2a, run 2), under 10 µM. Also, the IC50 in assay [2] (run 1) and in assay [2] (run 2) was over 99 µM in each case.

With `O=C(CCCSc1nc2ccccc2s1)NC1=NCCS1`, the 50% inhibitory concentration (IC50) was 7.38 µM in assay [1] (HIF-2a PANC, mean of runs); 7.27 µM in assay [1] (HIF-2a PANC, run 1); 7.49 µM in assay [1] (HIF-2a PANC, run 2); 6.38 µM in assay [1] (HIF-2a, mean of runs); 7.04 µM in assay [1] (HIF-2a, run 1); 5.72 µM in assay [1] (HIF-2a, run 2). The IC50 in assay [2] (run 1) is 15 µM; in assay [2] (run 2), 10.5 µM. In addition, the IC50 result in assay [2] (mean of runs) is “inactive”.

Consider `CCOC(=O)c1cccc(NC(=O)Nc2ccc(OCC)cc2)c1`, for which the IC50 in assay [1] (HIF-2a PANC, run 1) was under 30 µM; in assay [1] (HIF-2a PANC, run 2) it was 32.7 µM; in assay [1] (HIF-2a, run 1) it was 11.2 µM; in assay [1] (HIF-2a, run 2), under 10 µM; in assay [2] (run 1), over 99 µM; in assay [2] (run 2) it was over 99 µM.

In the case of `Cc1cc(C(=O)Nc2cccc(C(=O)O)c2)oc1C`, the IC50 in assay [1] (HIF-2a PANC, mean of runs) was > 99 µM (inactive); in assay [1] (HIF-2a PANC, run 1) it was over 99 µM; in assay [1] (HIF-2a PANC, run 2) it was over 99 µM; in assay [1] (HIF-2a, mean of runs), 6.46 µM; in assay [1] (HIF-2a, run 1), 6.81 µM; in assay [1] (HIF-2a, run 2), 6.12 µM. Also, the figures for the IC50 in assay [2] (run 1) and in assay [2] (run 2) were 41.9 µM and over 99 µM, respectively.

`CC(C)C[C@@H](N)c1nnc(SCC(=O)c2ccc(Cl)cc2)o1`: the 50% inhibitory concentration (IC50) in assay [1] (HIF-2a PANC, mean of runs) was 3.91 µM; in assay [1] (HIF-2a PANC, run 1), 4.22 µM; in assay [1] (HIF-2a PANC, run 2), 3.6 µM; in assay [1] (HIF-2a, mean of runs), 4.02 µM; in assay [1] (HIF-2a, run 1), 4.09 µM; in assay [1] (HIF-2a, run 2) it was 3.94 µM. For the same molecule, the IC50 in assay [2] (run 1) and in assay [2] (run 2) was over 99 µM in each case.

Turning to `CC(=O)Nc1ccc(Oc2sc(C(=O)c3ccccc3)c(N)c2C#N)cc1`, the IC50 result was “inactive” in assay [1] (HIF-2a PANC, mean of runs); “inactive” in assay [1] (HIF-2a, mean of runs); “inactive” in assay [2] (mean of runs). Besides, the IC50 in assay [1] (HIF-2a PANC, run 1) was found to be 47.2 µM; in assay [1] (HIF-2a PANC, run 2), 65.4 µM; in assay [1] (HIF-2a, run 1), 17.5 µM; in assay [1] (HIF-2a, run 2), 10.9 µM; in assay [2] (run 1) it was 27.7 µM; in assay [2] (run 2), 28.5 µM.

Consider `O=S(=O)(Nc1cccc2cccnc12)c1ccccc1`, for which the IC50 was > 99 µM (inactive) in assay [1] (HIF-2a PANC, mean of runs); over 99 µM in assay [1] (HIF-2a PANC, run 1); over 99 µM in assay [1] (HIF-2a PANC, run 2); 3.37 µM in assay [1] (HIF-2a, mean of runs); 3.54 µM in assay [1] (HIF-2a, run 1); 3.2 µM in assay [1] (HIF-2a, run 2). Further, the IC50 in assay [2] (run 1) and in assay [2] (run 2) was over 99 µM throughout.

For `COc1ccc(-c2cnc3c(NC=O)cc(-c4cccc(NS(C)(=O)=O)c4)cn23)cc1OC`, the IC50 in assay [1] (HIF-2a PANC, mean of runs) was 4.5 µM; in assay [1] (HIF-2a PANC, run 1), 3.94 µM; in assay [1] (HIF-2a PANC, run 2), 5.05 µM; in assay [1] (HIF-2a, run 1) it was 13 µM; in assay [1] (HIF-2a, run 2), 10.8 µM; in assay [2] (run 1), 30.3 µM. This molecule also showed an IC50 in assay [2] (run 2) of 24.8 µM. For the same molecule, the IC50 result in assay [1] (HIF-2a, mean of runs) was “inactive”; in assay [2] (mean of runs), “inactive”.
